Laboratory results published in ChEMBL document CHEMBL3091333, “Design, synthesis and biological evaluation of novel 4-anilinoquinazolines with C-6 urea-linked side chains as inhibitors of the epidermal growth factor receptor” (Bioorg Med Chem, 2013).
Calls of active or inactive are those of the source. No cut-off for these calls is given here.

Columns and labels:
[1] = target: Proto-oncogene tyrosine-protein kinase receptor Ret (Homo sapiens, UniProt P07949); assay: Inhibition of recombinant RET (unknown origin) using poly (Glu, Tyr) 4:1 as substrate after 60 mins by ELISA
[2] = target: T1, Epidermal growth factor receptor (Homo sapiens, UniProt P00533); assay: Irreversible inhibition of EGFR (unknown origin) using 5-FAM-EEPLYWSFPAKKK-CONH2 as substrate at 100 fold IC50 preincubated for 30 mins followed by 100 fold dilution measured for 2 hrs
A-431 = assay: Antiproliferative activity against human A431 cells after 72 hrs by SRB assay; format: functional, cell-based; settings: A-431, 72 h
[3] = tested on: Epidermal growth factor receptor (Homo sapiens), P00533 [T790M]; assay: Inhibition of EGF-induced EGFR T790M mutant phosphorylation in human NCI-H1975 cells assessed as AKT phosphorylation at < 10 uM incubated for 1 hr prior to EGF induction measured after 10 mins by Western blotting analysis; format: cell-based
[4] = target: Receptor tyrosine-protein kinase erbB-2 (Homo sapiens, UniProt P04626); assay: Inhibition of ErbB2 (unknown origin) expressed in baculovirus expression system using poly (Glu, Tyr) 4:1 as substrate after 60 mins by ELISA
[5] = target: Vascular endothelial growth factor receptor 2 (Homo sapiens, UniProt P35968); assay: Inhibition of KDR (unknown origin) expressed in baculovirus expression system using poly (Glu, Tyr) 4:1 as substrate after 60 mins by ELISA
[6] = target: T1, Epidermal growth factor receptor; assay: Inhibition of wild type EGFR (unknown origin) expressed in baculovirus expression system using poly (Glu, Tyr) 4:1 as substrate after 60 mins by ELISA
[7] = target: Platelet-derived growth factor receptor beta (Homo sapiens, UniProt P09619); assay: Inhibition of recombinant PDGFR-beta (unknown origin) using poly (Glu, Tyr) 4:1 as substrate after 60 mins by ELISA
[8] = tested on: Epidermal growth factor receptor (Homo sapiens), P00533 [T790M]; assay: Inhibition of EGF-induced EGFR T790M mutant autophosphorylation in human NCI-H1975 cells at 10 uM incubated for 1 hr prior to EGF induction measured after 10 mins by Western blotting analysis; format: cell-based
[9] = tested on: Epidermal growth factor receptor (Homo sapiens), P00533 [T790M]; assay: Inhibition of EGF-induced EGFR T790M mutant phosphorylation in human NCI-H1975 cells assessed as ERK phosphorylation at < 10 uM incubated for 1 hr prior to EGF induction measured after 10 mins by Western blotting analysis; format: cell-based
Ephrin type-A receptor 2 = Ephrin type-A receptor 2 (Homo sapiens, UniProt P29317); assay: Inhibition of recombinant EPHA2 (unknown origin) using poly (Glu, Tyr) 4:1 as substrate after 60 mins by ELISA
[10] = target: Macrophage-stimulating protein receptor (Homo sapiens, UniProt Q04912); assay: Inhibition of recombinant RON (unknown origin) using poly (Glu, Tyr) 4:1 as substrate after 60 mins by ELISA
[11] = target: Receptor tyrosine-protein kinase erbB-4 (Homo sapiens, UniProt Q15303); assay: Inhibition of recombinant ErbB4 (unknown origin) using poly (Glu, Tyr) 4:1 as substrate after 60 mins by ELISA
[12] = target: Platelet-derived growth factor receptor alpha (Homo sapiens, UniProt P16234); assay: Inhibition of recombinant PDGFR-alpha (unknown origin) using poly (Glu, Tyr) 4:1 as substrate after 60 mins by ELISA
[13] = target: Vascular endothelial growth factor receptor 1 (Homo sapiens, UniProt P17948); assay: Inhibition of recombinant FLT-1 (unknown origin) using poly (Glu, Tyr) 4:1 as substrate after 60 mins by ELISA
NCI-H1975 = assay: Antiproliferative activity against human NCI-H1975 cells expressing EGFR T790M mutant after 72 hrs by SRB assay; format: functional, cell-based; settings: NCI-H1975, 72 h
[14] = target: Epidermal growth factor receptor (Homo sapiens, UniProt P00533, L858M/T790M); assay: Inhibition of EGFR T790M/[…] double mutant (unknown origin) expressed in baculovirus expression system using poly (Glu, Tyr) 4:1 as substrate after 60 mins by ELISA
[15] = target: Insulin-like growth factor 1 receptor (Homo sapiens, UniProt P08069); assay: Inhibition of IGF1R (unknown origin) expressed in baculovirus expression system using poly (Glu, Tyr) 4:1 as substrate after 60 mins by ELISA
[16] = target: Mast/stem cell growth factor receptor Kit (Homo sapiens, UniProt P10721); assay: Inhibition of recombinant c-Kit (unknown origin) using poly (Glu, Tyr) 4:1 as substrate after 60 mins by ELISA
[17] = target: Fibroblast growth factor receptor 1 (Homo sapiens, UniProt P11362); assay: Inhibition of FGFR1 (unknown origin) expressed in baculovirus expression system using poly (Glu, Tyr) 4:1 as substrate after 60 mins by ELISA
[18] = target: Tyrosine-protein kinase ABL1 (Homo sapiens, UniProt P00519); assay: Inhibition of recombinant ABL (unknown origin) using poly (Glu, Tyr) 4:1 as substrate after 60 mins by ELISA
[19] = target: T1, Epidermal growth factor receptor; assay: Inhibition of EGF-induced EGFR phosphorylation in human A431 cells assessed as decrease in ERK phosphorylation at 0.01 to 10 uM incubated for 1 hr prior to EGF induction measured after 10 mins by Western blotting analysis; format: cell-based; settings: A-431
[20] = target: T1, Epidermal growth factor receptor; assay: Inhibition of EGF-induced EGFR phosphorylation in human A431 cells incubated for 1 hr prior to EGF induction measured after 10 mins by Western blotting analysis; format: cell-based; settings: A-431
[21] = target: T1, Epidermal growth factor receptor; assay: Inhibition of EGF-induced EGFR phosphorylation in human A431 cells assessed as decrease in AKT phosphorylation at 0.01 to 10 uM incubated for 1 hr prior to EGF induction measured after 10 mins by Western blotting analysis; format: cell-based; settings: A-431
[22] = target: T1, Epidermal growth factor receptor; assay: Inhibition of EGF-induced EGFR phosphorylation in human A431 cells at 0.01 uM incubated for 1 hr prior to EGF induction measured after 10 mins by Western blotting analysis; format: cell-based; settings: A-431

T1 sequence (P00533 whole entry): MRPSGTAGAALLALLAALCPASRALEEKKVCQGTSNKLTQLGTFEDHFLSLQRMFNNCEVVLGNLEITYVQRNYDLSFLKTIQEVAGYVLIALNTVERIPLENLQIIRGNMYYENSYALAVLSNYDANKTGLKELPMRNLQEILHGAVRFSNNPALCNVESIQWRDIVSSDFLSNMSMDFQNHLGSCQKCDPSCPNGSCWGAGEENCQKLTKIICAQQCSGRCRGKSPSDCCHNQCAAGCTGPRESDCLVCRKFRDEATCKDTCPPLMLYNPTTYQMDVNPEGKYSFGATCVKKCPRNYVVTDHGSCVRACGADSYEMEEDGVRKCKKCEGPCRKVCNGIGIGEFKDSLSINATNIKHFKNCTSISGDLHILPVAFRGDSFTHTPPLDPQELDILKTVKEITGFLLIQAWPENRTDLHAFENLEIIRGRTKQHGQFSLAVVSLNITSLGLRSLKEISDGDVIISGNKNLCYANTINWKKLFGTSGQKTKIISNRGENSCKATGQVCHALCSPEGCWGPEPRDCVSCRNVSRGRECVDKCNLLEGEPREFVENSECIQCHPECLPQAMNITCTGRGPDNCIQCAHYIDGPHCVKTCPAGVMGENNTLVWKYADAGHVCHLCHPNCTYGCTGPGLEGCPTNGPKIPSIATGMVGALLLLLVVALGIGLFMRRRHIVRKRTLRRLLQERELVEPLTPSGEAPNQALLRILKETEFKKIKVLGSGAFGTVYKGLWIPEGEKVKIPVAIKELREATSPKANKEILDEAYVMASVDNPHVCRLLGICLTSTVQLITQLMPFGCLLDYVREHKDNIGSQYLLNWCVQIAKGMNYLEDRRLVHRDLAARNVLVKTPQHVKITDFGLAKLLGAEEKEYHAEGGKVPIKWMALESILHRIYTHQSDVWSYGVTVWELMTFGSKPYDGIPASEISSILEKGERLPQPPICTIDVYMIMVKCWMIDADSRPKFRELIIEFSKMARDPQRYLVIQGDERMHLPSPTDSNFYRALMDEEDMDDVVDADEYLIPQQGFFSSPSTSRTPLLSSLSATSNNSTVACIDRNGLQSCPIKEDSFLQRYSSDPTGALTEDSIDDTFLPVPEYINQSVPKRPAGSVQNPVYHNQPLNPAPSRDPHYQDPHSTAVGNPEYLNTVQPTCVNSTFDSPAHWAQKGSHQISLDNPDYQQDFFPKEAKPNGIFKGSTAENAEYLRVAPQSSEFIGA
Chain of Epidermal growth factor receptor (Homo sapiens, UniProt P00533, L858M/T790M) (P00533 25-1210 T790M/L858M limits assumed): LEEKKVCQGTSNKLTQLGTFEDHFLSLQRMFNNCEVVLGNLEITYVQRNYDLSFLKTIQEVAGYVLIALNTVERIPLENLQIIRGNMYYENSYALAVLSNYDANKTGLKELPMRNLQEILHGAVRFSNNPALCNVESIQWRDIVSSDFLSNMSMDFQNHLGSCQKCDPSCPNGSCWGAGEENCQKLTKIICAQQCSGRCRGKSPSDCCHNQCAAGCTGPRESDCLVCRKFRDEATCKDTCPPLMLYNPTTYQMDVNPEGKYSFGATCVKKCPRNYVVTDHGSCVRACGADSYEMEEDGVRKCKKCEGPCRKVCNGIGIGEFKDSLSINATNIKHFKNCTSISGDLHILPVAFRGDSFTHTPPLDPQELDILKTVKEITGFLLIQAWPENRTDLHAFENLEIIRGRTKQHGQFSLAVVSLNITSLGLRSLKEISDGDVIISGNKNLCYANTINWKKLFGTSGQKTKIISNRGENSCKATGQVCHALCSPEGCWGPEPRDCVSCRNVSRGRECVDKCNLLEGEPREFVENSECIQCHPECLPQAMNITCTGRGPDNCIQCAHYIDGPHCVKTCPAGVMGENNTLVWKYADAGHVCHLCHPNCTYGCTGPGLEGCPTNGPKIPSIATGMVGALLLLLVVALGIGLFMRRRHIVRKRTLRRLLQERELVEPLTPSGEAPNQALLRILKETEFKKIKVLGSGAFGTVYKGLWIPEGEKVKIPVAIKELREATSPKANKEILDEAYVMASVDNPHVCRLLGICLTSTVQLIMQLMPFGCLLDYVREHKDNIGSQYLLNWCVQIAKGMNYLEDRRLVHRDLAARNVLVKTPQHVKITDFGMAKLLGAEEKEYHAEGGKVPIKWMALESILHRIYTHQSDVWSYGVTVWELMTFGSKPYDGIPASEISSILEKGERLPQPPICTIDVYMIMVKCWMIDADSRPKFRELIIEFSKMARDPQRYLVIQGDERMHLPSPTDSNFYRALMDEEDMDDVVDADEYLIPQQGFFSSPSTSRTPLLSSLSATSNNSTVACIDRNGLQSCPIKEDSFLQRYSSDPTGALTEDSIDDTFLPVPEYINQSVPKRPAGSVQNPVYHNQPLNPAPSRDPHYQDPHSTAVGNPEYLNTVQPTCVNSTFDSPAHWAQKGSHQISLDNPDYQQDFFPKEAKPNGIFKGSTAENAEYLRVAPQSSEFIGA
Chain of Epidermal growth factor receptor (Homo sapiens), P00533 [T790M] (P00533 whole entry T790M): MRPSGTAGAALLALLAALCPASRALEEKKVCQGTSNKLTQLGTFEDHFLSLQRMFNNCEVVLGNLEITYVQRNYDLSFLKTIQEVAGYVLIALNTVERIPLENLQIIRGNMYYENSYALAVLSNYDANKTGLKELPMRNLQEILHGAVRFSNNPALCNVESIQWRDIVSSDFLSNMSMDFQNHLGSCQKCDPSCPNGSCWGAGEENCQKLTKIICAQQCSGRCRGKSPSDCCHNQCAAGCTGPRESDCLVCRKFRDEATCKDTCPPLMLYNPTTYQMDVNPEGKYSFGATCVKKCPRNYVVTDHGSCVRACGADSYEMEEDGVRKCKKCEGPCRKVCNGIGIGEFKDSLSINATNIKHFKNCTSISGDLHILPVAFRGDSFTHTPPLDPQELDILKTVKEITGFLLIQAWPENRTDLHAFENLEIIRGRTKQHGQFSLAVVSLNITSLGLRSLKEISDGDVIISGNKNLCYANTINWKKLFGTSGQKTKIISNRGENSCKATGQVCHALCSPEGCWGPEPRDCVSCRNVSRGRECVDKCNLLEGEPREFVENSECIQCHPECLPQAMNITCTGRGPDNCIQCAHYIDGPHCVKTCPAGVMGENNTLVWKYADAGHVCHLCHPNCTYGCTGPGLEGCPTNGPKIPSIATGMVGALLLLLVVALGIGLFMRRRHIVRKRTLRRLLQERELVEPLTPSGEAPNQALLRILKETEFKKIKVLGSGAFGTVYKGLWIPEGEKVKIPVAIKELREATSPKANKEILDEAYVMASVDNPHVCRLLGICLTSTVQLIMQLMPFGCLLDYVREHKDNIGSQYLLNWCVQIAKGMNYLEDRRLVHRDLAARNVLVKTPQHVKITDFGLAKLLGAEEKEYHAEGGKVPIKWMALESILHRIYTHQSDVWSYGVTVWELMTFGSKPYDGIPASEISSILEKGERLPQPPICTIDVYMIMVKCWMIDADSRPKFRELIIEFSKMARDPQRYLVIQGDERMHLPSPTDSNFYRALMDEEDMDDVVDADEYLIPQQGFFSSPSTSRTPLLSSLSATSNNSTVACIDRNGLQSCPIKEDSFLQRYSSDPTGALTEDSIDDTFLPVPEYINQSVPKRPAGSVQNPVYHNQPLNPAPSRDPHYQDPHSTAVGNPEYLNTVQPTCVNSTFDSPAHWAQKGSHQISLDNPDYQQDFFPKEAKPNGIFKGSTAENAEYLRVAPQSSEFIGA
Chain of Fibroblast growth factor receptor 1 (P11362 whole entry): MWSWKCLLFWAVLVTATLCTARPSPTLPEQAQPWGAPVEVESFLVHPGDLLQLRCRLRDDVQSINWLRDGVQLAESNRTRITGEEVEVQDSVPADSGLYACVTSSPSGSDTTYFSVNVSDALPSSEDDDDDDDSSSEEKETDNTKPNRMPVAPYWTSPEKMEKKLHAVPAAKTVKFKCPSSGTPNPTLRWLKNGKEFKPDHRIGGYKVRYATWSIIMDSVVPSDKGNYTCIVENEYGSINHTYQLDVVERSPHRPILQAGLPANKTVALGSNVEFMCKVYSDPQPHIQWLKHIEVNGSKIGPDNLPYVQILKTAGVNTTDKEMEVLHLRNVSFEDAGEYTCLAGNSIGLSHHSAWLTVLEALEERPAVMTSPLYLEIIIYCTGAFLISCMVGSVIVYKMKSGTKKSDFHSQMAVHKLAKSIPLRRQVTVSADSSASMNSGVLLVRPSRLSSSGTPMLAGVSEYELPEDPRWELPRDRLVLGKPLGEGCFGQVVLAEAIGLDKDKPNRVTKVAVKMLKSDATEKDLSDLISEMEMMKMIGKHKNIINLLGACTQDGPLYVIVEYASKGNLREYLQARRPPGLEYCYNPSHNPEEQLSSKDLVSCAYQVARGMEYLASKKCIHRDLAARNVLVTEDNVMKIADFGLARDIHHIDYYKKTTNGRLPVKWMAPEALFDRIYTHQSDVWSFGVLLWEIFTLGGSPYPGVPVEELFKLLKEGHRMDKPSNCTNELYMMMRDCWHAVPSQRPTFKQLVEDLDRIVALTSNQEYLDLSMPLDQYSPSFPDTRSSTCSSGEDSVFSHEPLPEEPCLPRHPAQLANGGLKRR

Compound | IC50 (A-431) [µM] | IC50 [6] [µM] | IC50 (NCI-H1975) [µM] | IC50 [14] [µM] | also measured
O=C(NCCN1CCCC1)Nc1cc2c(Nc3ccc(F)c(Cl)c3)ncnc2cc1O[C@H]1CCOC1 | 0.247 | 0.068 | 5.3 | 0.061 | IC50 [1]: 0.223 µM; inhibition [2]: Active; inhibition [3]: inactive; IC50 [4]: 0.112 µM; IC50 [5]: > 10 µM; IC50 [7]: > 10 µM; inhibition [8]: Active; inhibition [9]: inactive; IC50 (Ephrin type-A receptor 2): > 10 µM; IC50 [10]: 6.1 µM; IC50 [11]: 0.012 µM; IC50 [12]: > 10 µM; IC50 [13]: > 10 µM; IC50 [15]: > 10 µM; IC50 [16]: > 10 µM; IC50 [17]: > 10 µM; IC50 [18]: > 10 µM
CN1CCN(C(=O)Nc2cc3c(Nc4ccc(F)c(Cl)c4)ncnc3cc2O[C@H]2CCOC2)CC1 | 0.675 | 0.464 | 12.3 | 5.58 | –
O=C(Nc1cc2c(Nc3ccc(F)c(Cl)c3)ncnc2cc1O[C@H]1CCOC1)N1CCN(CCO)CC1 | 1.13 | 0.331 | 18.2 | 4.21 | –
O=C(Nc1cc2c(Nc3ccc(F)c(Cl)c3)ncnc2cc1O[C@H]1CCOC1)N1CCC(F)(F)C1 | 1.48 | 1.58 | 4.5 | 3.12 | –
CN(C)CCNC(=O)Nc1cc2c(Nc3ccc(F)c(Cl)c3)ncnc2cc1O[C@H]1CCOC1 | 0.806 | 0.635 | 4.7 | 2.08 | –
CN(C)CCN(C)C(=O)Nc1cc2c(Nc3ccc(F)c(Cl)c3)ncnc2cc1O[C@H]1CCOC1 | 0.45 | 0.281 | 8.2 | 0.677 | –
O=C(Nc1cc2c(Nc3ccc(F)c(Cl)c3)ncnc2cc1O[C@H]1CCOC1)N1CCC(N2CCCC2)CC1 | 0.317 | 0.265 | 9.6 | 1.59 | –
O=C(Nc1cc2c(Nc3ccc(F)c(Cl)c3)ncnc2cc1O[C@H]1CCOC1)N1CCC(F)(F)CC1 | 1.85 | 0.859 | 32.3 | 5.31 | –
O=C(NCCO)Nc1cc2c(Nc3ccc(F)c(Cl)c3)ncnc2cc1O[C@H]1CCOC1 | 0.598 | – | 17.6 | – | –
COC(=O)/C=C/CNC(=O)Nc1cc2c(Nc3ccc(F)c(Cl)c3)ncnc2cc1O[C@H]1CCOC1 | 1.41 | 0.404 | 9.6 | 0.265 | –
O=C(Nc1cc2c(Nc3ccc(F)c(Cl)c3)ncnc2cc1O[C@H]1CCOC1)N1CCCC(F)(F)C1 | 0.935 | 0.884 | 43.2 | 1.89 | –
O=C(Nc1cc2c(Nc3ccc(F)c(Cl)c3)ncnc2cc1O[C@H]1CCOC1)N1CC(F)C1 | 5.78 | 0.967 | 13.4 | 2.17 | –
CCN(CC)CCN(C)C(=O)Nc1cc2c(Nc3ccc(F)c(Cl)c3)ncnc2cc1O[C@H]1CCOC1 | 0.481 | 0.505 | 8.3 | 0.392 | –
O=C(Nc1cc2c(Nc3ccc(F)c(Cl)c3)ncnc2cc1O[C@H]1CCOC1)N1CCC2(CC1)OCCO2 | 2.18 | 1.72 | 32.2 | 5.19 | –
O=C(Nc1cc2c(Nc3ccc(F)c(Cl)c3)ncnc2cc1O[C@H]1CCOC1)N1CCC(CCO)CC1 | 0.759 | 0.304 | 25.3 | 2.94 | –
CS(=O)(=O)CCNC(=O)Nc1cc2c(Nc3ccc(F)c(Cl)c3)ncnc2cc1O[C@H]1CCOC1 | 1.57 | 0.041 | 35.2 | 0.672 | –
C#CCNC(=O)Nc1cc2c(Nc3ccc(F)c(Cl)c3)ncnc2cc1O[C@H]1CCOC1 | 3.73 | 0.232 | 14.8 | 0.374 | –
CCN(CC)CCNC(=O)Nc1cc2c(Nc3ccc(F)c(Cl)c3)ncnc2cc1O[C@H]1CCOC1 | 0.249 | 0.365 | 5.2 | 2.24 | –
CN(C)CCCN(C)C(=O)Nc1cc2c(Nc3ccc(F)c(Cl)c3)ncnc2cc1O[C@H]1CCOC1 | 0.2 | 0.464 | 3.3 | 5.26 | –
CN(C)CCCNC(=O)Nc1cc2c(Nc3ccc(F)c(Cl)c3)ncnc2cc1O[C@H]1CCOC1 | 0.226 | 0.024 | 6.3 | 0.276 | inhibition [19]: Active; inhibition [20]: Dose-dependent effect; inhibition [21]: Active; inhibition [22]: Active
COC(CCNC(=O)Nc1cc2c(Nc3ccc(F)c(Cl)c3)ncnc2cc1O[C@H]1CCOC1)OC | 22 | 0.544 | > 100 | 0.4 | –
CCN(CC)CCCNC(=O)Nc1cc2c(Nc3ccc(F)c(Cl)c3)ncnc2cc1O[C@H]1CCOC1 | 0.196 | 0.032 | 4.3 | 3.06 | IC50 [1]: 0.347 µM; IC50 [4]: 0.078 µM; IC50 [5]: > 10 µM; IC50 [7]: > 10 µM; inhibition [19]: Active; IC50 (Ephrin type-A receptor 2): > 10 µM; IC50 [10]: > 10 µM; IC50 [11]: 0.008 µM; IC50 [12]: > 10 µM; inhibition [20]: Dose-dependent effect; IC50 [13]: > 10 µM; inhibition [21]: Active; IC50 [15]: > 10 µM; IC50 [16]: > 10 µM; IC50 [17]: > 10 µM; IC50 [18]: 0.566 µM; inhibition [22]: Active
CN(C)C/C=C/C(=O)Nc1cc2c(Nc3ccc(F)c(Cl)c3)ncnc2cc1O[C@H]1CCOC1 [AFATINIB] | – | – | 0.148 | – | –
O=C(Nc1cc2c(Nc3ccc(F)c(Cl)c3)ncnc2cc1O[C@H]1CCOC1)N1CCC(F)CC1 | 3.04 | 0.699 | 33.3 | 1.82 | –
O=C(NCCN1CCCCC1)Nc1cc2c(Nc3ccc(F)c(Cl)c3)ncnc2cc1O[C@H]1CCOC1 | 0.116 | 0.165 | 3.2 | 0.447 | –
COCCCNC(=O)Nc1cc2c(Nc3ccc(F)c(Cl)c3)ncnc2cc1O[C@H]1CCOC1 | 4.1 | 0.197 | 22.7 | 1.66 | –
O=C(Nc1cc2c(Nc3ccc(F)c(Cl)c3)ncnc2cc1O[C@H]1CCOC1)N1CC(O)C1 | 1.93 | 0.543 | 32.2 | 1.42 | –
COCCNC(=O)Nc1cc2c(Nc3ccc(F)c(Cl)c3)ncnc2cc1O[C@H]1CCOC1 | 0.387 | 0.479 | 8.3 | 3.56 | –
O=C(NCCN1CCOCC1)Nc1cc2c(Nc3ccc(F)c(Cl)c3)ncnc2cc1O[C@H]1CCOC1 | 0.307 | 0.082 | 5.3 | 0.049 | inhibition [3]: inactive; inhibition [8]: Active; inhibition [9]: inactive
